Source: patent publication US9623028B2, “Methods of treating a cancer using substituted pyrrolopyrimidine compounds, compositions thereof” (Signal Pharmaceuticals, LLC, priority 2014, dated 2017)
pIC50: −log10 of the molar value. Where two headings read alike, the source gives them in different places.

Tested on: breast cancer cell lines
Experiment: cells
Conditions: for pIC50: read-out: Growth Inhibition IC50; for GI50: read-out: Growth inhibition GI50
[1] = Homo sapiens, MDA-MB-175-VII, 96 h

`CNC(=O)c1ccc(Nc2nc(OC(C)C)c3c(-c4ccc5nc(C)oc5c4)c[nH]c3n2)c(OC)c1` [Compound 125, 4-((4-isopropoxy-5-(2-methylbenzo[d]oxazol-6-yl)-7H-pyrrolo[2,3-d]pyrimidin-2-yl)amino)-3-methoxy-N-methylbenzamide] showed a pIC50 (96 h) of 6.38, a GI50 (96 h) of 0.116 µM and a pIC50 (EFM-192A, 96 h) of 5.89. The GI50 (EFM-192A, 96 h) was 0.294 µM, the pIC50 (HCC202, 96 h) was 6.72 and the GI50 (HCC202, 96 h) was 0.028 µM. The pIC50 (HCC1500, 96 h) was 5.64, the GI50 (HCC1500, 96 h) was 0.103 µM and the pIC50 (Homo sapiens, AU565, 96 h) was 7.68. It also gave a GI50 (Homo sapiens, AU565, 96 h) of 0.016 µM, a pIC50 (Homo sapiens, BT-20, 96 h) of 7.36 and a GI50 (Homo sapiens, BT-20, 96 h) of 0.028 µM. It also gave a pIC50 (Homo sapiens, BT-474, 96 h) of 6.23, a GI50 (Homo sapiens, BT-474, 96 h) of 10 µM and a pIC50 (Homo sapiens, BT-483, 96 h) of 5.47. It also gave a pIC50 (Homo sapiens, BT-549, 96 h) of 7.18, a GI50 (Homo sapiens, BT-549, 96 h) of 0.034 µM and a pIC50 (Homo sapiens, CAL-51, 96 h) of 8.00. For the same molecule, the GI50 (Homo sapiens, CAL-51, 96 h) was 0.009 µM, the pIC50 (Homo sapiens, CAL-85-1, 96 h) was 7.03 and the GI50 (Homo sapiens, CAL-85-1, 96 h) was 0.029 µM. For the same molecule, the pIC50 (Homo sapiens, CAL-120, 96 h) was 6.57, the GI50 (Homo sapiens, CAL-120, 96 h) was 10 µM and the pIC50 (Homo sapiens, CAL-148, 96 h) was 6.77. The GI50 (Homo sapiens, CAL-148, 96 h) was 0.047 µM, the pIC50 (Homo sapiens, CAMA-1, 96 h) was 6.12 and the GI50 (Homo sapiens, CAMA-1, 96 h) was 0.59 µM. It also gave a pIC50 (Homo sapiens, DU-4475, 96 h) of 6.61, a GI50 (Homo sapiens, DU-4475, 96 h) of 0.038 µM and a pIC50 (Homo sapiens, EFM-19, 96 h) of 6.74. For the same molecule, the GI50 (Homo sapiens, EFM-19, 96 h) was 0.035 µM, the pIC50 (Homo sapiens, EVSA-T, 96 h) was 6.69 and the GI50 (Homo sapiens, EVSA-T, 96 h) was 6 µM. It also gave a pIC50 (Homo sapiens, HCC38, 96 h) of 7.92, a GI50 (Homo sapiens, HCC38, 96 h) of 0.009 µM and a pIC50 (Homo sapiens, HCC70, 96 h) of 6.57. It also gave a GI50 (Homo sapiens, HCC70, 96 h) of 0.047 µM, a pIC50 (Homo sapiens, HCC1143, 96 h) of 6.32 and a GI50 (Homo sapiens, HCC1143, 96 h) of 0.215 µM. It also gave a pIC50 (Homo sapiens, HCC1187, 96 h) of 7.51, a GI50 (Homo sapiens, HCC1187, 96 h) of 0.027 µM and a pIC50 (Homo sapiens, HCC1419, 96 h) of 5.60. The GI50 (Homo sapiens, HCC1419, 96 h) was 10 µM, the pIC50 (Homo sapiens, HCC1428, 96 h) was 6.33 and the GI50 (Homo sapiens, HCC1428, 96 h) was 0.326 µM. For the same molecule, the pIC50 (Homo sapiens, HCC1569, 96 h) was 6.39, the GI50 (Homo sapiens, HCC1569, 96 h) was 0.088 µM and the pIC50 (Homo sapiens, HCC1806, 96 h) was 7.96. The GI50 (Homo sapiens, HCC1806, 96 h) was 0.008 µM, the pIC50 (Homo sapiens, HCC1937, 96 h) was 6.51 and the GI50 (Homo sapiens, HCC1937, 96 h) was 6.38 µM. It also gave a pIC50 (Homo sapiens, HCC1954, 96 h) of 7.17, a GI50 (Homo sapiens, HCC1954, 96 h) of 0.027 µM and a pIC50 (Homo sapiens, HDQ-P1, 96 h) of 7.08. The GI50 (Homo sapiens, HDQ-P1, 96 h) was 0.106 µM, the pIC50 (Homo sapiens, Hs-578T, 96 h) was 7.39 and the GI50 (Homo sapiens, Hs-578T, 96 h) was 0.047 µM. It also gave a pIC50 (Homo sapiens, JIMT-1, 96 h) of 6.78, a GI50 (Homo sapiens, JIMT-1, 96 h) of 0.061 µM and a pIC50 (Homo sapiens, MCF7, 96 h) of 7.92. The GI50 (Homo sapiens, MCF7, 96 h) was 0.011 µM, the pIC50 (Homo sapiens, MDA-MB-134-VI, 96 h) was 5.50 and the pIC50 (Homo sapiens, MDA-MB-157, 96 h) was 6.20. For the same molecule, the GI50 (Homo sapiens, MDA-MB-157, 96 h) was 0.114 µM, the pIC50 [1] was 5.55 and the GI50 [1] was 5.29 µM. It also gave a pIC50 (Homo sapiens, MDA-MB-231, 96 h) of 7.51, a GI50 (Homo sapiens, MDA-MB-231, 96 h) of 0.019 µM and a pIC50 (Homo sapiens, MDA-MB-361, 96 h) of 5.83. The GI50 (Homo sapiens, MDA-MB-361, 96 h) was 0.091 µM, the pIC50 (Homo sapiens, MDA-MB-415, 96 h) was 5.26 and the GI50 (Homo sapiens, MDA-MB-415, 96 h) was 10 µM. It also gave a pIC50 (Homo sapiens, MDA-MB-436, 96 h) of 6.29, a GI50 (Homo sapiens, MDA-MB-436, 96 h) of 0.999 µM and a pIC50 (Homo sapiens, MDA-MB-453, 96 h) of 6.18. For the same molecule, the GI50 (Homo sapiens, MDA-MB-453, 96 h) was 10 µM, the pIC50 (Homo sapiens, MDA-MB-468, 96 h) was 7.62 and the GI50 (Homo sapiens, MDA-MB-468, 96 h) was 0.023 µM. The pIC50 (Homo sapiens, MFM-223, 96 h) was 6.76, the GI50 (Homo sapiens, MFM-223, 96 h) was 0.043 µM and the pIC50 (Homo sapiens, SK-BR-3, 96 h) was 6.57. For the same molecule, the GI50 (Homo sapiens, SK-BR-3, 96 h) was 0.081 µM, the pIC50 (Homo sapiens, T47D, 96 h) was 6.47 and the GI50 (Homo sapiens, T47D, 96 h) was 0.081 µM. It also gave a pIC50 (Homo sapiens, UACC-812, 96 h) of 6.53, a GI50 (Homo sapiens, UACC-812, 96 h) of 0.319 µM and a pIC50 (Homo sapiens, UACC-893, 96 h) of 6.10. It also gave a pIC50 (Homo sapiens, ZR-75-1, 96 h) of 5.48, a GI50 (Homo sapiens, ZR-75-1, 96 h) of 0.032 µM and a pIC50 (Homo sapiens, ZR-75-30, 96 h) of 6.15. For the same molecule, the pIC50 (KPL-1, 96 h) was 7.19, the GI50 (KPL-1, 96 h) was 0.126 µM and the pIC50 (MT-3, 96 h) was 5.07. It also gave a GI50 (MT-3, 96 h) of 5.76 µM.
